Assay [1] has as its target T1, Lethal factor (Bacillus anthracis) (UniProt P15917).
T1 sequence (whole entry): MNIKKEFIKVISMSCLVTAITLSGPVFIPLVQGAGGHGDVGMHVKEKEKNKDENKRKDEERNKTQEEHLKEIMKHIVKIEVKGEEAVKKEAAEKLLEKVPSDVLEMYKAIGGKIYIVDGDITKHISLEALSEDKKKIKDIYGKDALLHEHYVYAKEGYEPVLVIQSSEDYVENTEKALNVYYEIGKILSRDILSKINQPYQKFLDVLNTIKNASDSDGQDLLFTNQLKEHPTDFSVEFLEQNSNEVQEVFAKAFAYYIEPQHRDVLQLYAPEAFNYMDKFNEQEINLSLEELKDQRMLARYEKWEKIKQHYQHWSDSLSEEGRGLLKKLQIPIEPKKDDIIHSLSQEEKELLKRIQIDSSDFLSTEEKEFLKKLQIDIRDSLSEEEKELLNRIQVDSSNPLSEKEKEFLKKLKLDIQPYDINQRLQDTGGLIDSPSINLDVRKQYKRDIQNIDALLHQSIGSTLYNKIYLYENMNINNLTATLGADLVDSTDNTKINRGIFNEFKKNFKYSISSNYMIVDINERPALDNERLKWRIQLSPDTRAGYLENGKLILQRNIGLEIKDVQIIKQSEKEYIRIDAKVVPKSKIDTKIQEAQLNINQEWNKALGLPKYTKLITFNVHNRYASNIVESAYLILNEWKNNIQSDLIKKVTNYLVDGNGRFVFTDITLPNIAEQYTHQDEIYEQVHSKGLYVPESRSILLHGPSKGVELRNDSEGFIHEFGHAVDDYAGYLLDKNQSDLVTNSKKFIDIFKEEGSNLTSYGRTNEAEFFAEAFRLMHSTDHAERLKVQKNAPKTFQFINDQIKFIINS
The note with it: at 1 mM.

For assay [2], the target named is T2, Interstitial collagenase (Homo sapiens) (UniProt P03956).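 Also: recombinant human enzyme, with inhibition measured after 30 min.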
T2 sequence (whole entry): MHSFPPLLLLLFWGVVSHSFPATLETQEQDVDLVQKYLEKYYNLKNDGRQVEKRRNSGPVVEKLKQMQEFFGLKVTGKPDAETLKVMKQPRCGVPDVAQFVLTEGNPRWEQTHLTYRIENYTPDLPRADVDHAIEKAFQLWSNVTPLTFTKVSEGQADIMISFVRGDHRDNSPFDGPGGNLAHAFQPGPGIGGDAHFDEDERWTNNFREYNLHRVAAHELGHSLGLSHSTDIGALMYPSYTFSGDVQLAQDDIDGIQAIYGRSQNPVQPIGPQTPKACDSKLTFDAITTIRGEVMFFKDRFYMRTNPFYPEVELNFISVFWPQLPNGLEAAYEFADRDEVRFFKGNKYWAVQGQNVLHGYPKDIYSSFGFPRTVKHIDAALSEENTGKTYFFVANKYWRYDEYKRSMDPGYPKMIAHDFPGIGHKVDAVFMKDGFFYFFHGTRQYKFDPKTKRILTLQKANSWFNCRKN
The note with it: at 1 mM.

For assay [3], the target named is 72 kDa type IV collagenase (Homo sapiens, UniProt P08253). The following applies: at 1 mM.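 Also: recombinant human enzyme, inhibition read after a 30 min incubation.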
Assay [4] deals with T3, Tyrosinase (Agaricus bisporus) (UniProt O42713).
T3 sequence (whole entry): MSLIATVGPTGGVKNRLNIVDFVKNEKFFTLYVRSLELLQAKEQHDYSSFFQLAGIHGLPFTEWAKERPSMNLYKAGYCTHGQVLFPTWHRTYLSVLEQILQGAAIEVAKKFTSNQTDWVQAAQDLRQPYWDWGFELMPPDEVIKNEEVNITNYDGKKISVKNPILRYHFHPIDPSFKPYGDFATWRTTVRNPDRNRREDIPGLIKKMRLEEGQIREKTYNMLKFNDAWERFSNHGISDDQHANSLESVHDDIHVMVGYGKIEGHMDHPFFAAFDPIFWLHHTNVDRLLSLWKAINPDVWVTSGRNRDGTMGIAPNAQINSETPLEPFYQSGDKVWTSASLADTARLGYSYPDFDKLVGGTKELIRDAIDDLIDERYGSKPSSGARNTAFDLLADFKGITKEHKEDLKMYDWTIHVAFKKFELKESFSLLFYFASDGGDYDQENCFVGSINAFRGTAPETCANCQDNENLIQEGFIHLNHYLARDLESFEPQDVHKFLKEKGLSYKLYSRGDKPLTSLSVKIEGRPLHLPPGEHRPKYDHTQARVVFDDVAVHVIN
The following applies: at 1 mM.

In assay [5] the target is Stromelysin-1 (Homo sapiens) (UniProt P08254). The following applies: at 1 mM.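 Also: recombinant enzyme, inhibition read after a 30 min incubation.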
For assay [6], the target named is Matrix metalloproteinase-9 (Homo sapiens) (UniProt P14780). The note with it: at 1 mM.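 Also: recombinant human MMP9, activity read after 30 min.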
Assay [7] deals with Neutrophil collagenase (Homo sapiens) (UniProt P22894). The note with it: at 1 mM.
The target in assay [8] is T4, Polyunsaturated fatty acid 5-lipoxygenase (Homo sapiens) (UniProt P09917).
T4 sequence (whole entry): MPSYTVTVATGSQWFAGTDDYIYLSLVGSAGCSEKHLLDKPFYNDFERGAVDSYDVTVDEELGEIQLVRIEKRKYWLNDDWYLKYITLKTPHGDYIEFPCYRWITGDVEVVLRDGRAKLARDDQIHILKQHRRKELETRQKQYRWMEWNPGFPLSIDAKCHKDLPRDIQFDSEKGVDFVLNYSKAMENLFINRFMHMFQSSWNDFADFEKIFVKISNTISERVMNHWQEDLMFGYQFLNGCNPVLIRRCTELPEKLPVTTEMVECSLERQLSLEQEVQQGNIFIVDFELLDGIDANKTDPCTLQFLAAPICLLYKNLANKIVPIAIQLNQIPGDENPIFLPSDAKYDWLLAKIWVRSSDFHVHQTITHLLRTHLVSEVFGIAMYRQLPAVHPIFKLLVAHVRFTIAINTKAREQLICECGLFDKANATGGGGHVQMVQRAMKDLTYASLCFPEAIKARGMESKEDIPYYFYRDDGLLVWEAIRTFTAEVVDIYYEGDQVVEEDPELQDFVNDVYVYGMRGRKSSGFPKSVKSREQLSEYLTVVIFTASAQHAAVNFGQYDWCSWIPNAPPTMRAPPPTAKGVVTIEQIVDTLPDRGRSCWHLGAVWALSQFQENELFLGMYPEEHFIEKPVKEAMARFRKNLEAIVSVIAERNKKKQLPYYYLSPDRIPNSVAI
Nature of the assay: Inhibition of human recombinant 5-lipoxygenase at 1 mM after 10 mins by fluorescence assay.

Sequence of Neutrophil collagenase (Homo sapiens) (P22894 101-467 limits assumed): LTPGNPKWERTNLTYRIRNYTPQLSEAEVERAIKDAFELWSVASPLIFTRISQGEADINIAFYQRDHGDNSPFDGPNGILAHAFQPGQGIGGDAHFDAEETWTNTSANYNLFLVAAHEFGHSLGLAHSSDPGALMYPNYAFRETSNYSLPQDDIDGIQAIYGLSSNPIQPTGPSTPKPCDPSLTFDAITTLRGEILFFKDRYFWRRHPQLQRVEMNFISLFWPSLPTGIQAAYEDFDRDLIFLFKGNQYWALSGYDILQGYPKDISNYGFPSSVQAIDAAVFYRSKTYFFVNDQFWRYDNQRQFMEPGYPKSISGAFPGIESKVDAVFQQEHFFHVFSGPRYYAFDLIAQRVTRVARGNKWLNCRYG
Sequence of 72 kDa type IV collagenase (P08253 110-660 limits assumed): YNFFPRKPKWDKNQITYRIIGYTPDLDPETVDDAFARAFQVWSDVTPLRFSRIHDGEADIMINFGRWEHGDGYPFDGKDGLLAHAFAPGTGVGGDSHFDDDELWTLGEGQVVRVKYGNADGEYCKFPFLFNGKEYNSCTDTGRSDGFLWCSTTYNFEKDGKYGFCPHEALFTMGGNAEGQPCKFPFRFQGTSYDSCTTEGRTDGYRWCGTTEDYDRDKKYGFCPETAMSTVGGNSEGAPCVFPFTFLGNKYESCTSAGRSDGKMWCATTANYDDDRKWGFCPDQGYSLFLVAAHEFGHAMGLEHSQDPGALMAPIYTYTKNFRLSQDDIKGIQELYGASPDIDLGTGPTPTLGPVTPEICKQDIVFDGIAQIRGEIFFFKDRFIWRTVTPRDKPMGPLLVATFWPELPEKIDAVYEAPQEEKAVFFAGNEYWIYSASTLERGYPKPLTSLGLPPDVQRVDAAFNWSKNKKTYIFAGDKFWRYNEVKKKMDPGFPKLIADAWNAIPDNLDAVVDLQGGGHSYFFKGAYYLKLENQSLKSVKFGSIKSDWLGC
Sequence of Stromelysin-1 (Homo sapiens) (P08254 100-477 limits assumed): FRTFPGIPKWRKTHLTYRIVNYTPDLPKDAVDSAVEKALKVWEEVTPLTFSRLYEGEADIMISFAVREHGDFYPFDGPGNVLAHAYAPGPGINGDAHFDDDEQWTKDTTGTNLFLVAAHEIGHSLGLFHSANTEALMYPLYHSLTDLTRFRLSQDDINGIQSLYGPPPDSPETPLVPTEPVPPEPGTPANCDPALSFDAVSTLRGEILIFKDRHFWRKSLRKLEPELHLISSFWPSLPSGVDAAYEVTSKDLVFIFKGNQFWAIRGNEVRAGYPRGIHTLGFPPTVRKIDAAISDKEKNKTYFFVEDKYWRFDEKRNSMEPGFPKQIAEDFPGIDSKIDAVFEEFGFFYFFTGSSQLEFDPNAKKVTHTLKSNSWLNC
Sequence of Matrix metalloproteinase-9 (Homo sapiens) (P14780 whole entry): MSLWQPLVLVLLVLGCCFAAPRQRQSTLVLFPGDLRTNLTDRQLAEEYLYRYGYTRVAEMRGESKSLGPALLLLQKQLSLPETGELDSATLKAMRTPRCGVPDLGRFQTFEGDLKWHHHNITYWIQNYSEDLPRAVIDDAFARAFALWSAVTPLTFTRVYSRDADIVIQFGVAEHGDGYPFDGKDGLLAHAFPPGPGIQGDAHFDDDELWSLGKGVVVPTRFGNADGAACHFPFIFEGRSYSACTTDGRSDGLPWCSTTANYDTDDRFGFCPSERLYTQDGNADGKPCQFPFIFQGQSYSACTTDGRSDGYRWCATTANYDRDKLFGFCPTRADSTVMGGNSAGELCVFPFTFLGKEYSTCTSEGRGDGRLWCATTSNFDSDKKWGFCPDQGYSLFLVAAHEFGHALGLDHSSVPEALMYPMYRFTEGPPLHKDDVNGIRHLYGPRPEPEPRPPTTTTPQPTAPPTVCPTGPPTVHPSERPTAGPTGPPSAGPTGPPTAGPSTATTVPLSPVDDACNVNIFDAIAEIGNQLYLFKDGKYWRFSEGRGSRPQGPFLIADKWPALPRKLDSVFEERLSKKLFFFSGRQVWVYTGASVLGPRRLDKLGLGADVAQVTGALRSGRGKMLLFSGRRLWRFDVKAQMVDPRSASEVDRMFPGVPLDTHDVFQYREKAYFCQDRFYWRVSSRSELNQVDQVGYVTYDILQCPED

As a reminder, the inhibition is the relative decrease from the control value, in per cent. For the compound `Cc1cc(C)nc(S)n1`, the inhibition in assay [1] was determined as 15%; in assay [2], 56%; in assay [3] it was 55%; in assay [4], 99%; in assay [5] it was 70%; in assay [6] it was 56%. For the same compound, the inhibition in assay [7] was determined as 49%; in assay [8], 80%.
Consider `CCn1ccc(=S)c(O)c1C`, for which the inhibition was determined as 60% in assay [1]; 98% in assay [2]; 100% in assay [3]; 100% in assay [4]; 99% in assay [5]; 100% in assay [6]. Further, the figures for the inhibition in assay [7] and in assay [8] were 93% and 96%, respectively.
Consider `Oc1ccccc1-c1nc2ccccc2s1`, for which the inhibition in assay [1] was found to be 1%; in assay [2], 6%; in assay [3], 7%; in assay [4], 34%; in assay [5], 4%; in assay [6], 3%. In assay [7], the inhibition turned out to be 40%.
With `Cc1ccc(C(=O)O)c(C(=O)O)n1`, the inhibition in assay [1] was 43%; in assay [2], 8%; in assay [4], 96%; in assay [5], 28%; in assay [6], -10%; in assay [7], 11%. The inhibition in assay [8] stood at 22%.
In the case of `CCc1c(O)c(=S)ccn1CC`, the inhibition in assay [1] came to 55%; in assay [2], 81%; in assay [3], 100%; in assay [4], 100%; in assay [5], 99%; in assay [6], 100%. The inhibition in assay [7] turned out to be 94%; in assay [8], 97%.
Regarding `O=C1C=C(O)C(=O)c2ccccc21`, the inhibition in assay [1] amounted to 100%; in assay [2], 86%; in assay [3], 84%; in assay [4], 69%; in assay [5] it was 84%; in assay [6] it was 85%. Also, the inhibition in assay [7] worked out at 86%; in assay [8] it was 100%.
In the case of `Oc1ccc2ccccc2c1O`, the inhibition in assay [1] turned out to be 85%; in assay [2] it was 71%; in assay [3], 71%; in assay [5], 89%; in assay [6], 86%; in assay [7], 100%. The inhibition in assay [8] came to 69%.
As for `O=C(O)c1ccc(O)c(O)c1`, the inhibition in assay [1] is 21%; in assay [2], 14%; in assay [3] it was -8%; in assay [4], 50%; in assay [5], 0%; in assay [6] it was -1%. In addition, the inhibition in assay [7] stood at 13%; in assay [8], 86%.
With `Nc1cccc2cccnc12`, the inhibition in assay [1] was determined as 30%; in assay [2], 63%; in assay [3], 51%; in assay [5] it was 56%; in assay [6] it was 57%; in assay [7] it was 61%.
In the case of `Oc1ccccc1-c1nc2ccccc2o1`, the inhibition in assay [1] is 0%; in assay [2], 11%; in assay [3], 1%; in assay [4] it was 3%; in assay [5] it was 4%; in assay [7], 28%.
With `COc1ccccc1S`, the inhibition is 19% in assay [1]; 11% in assay [2]; 3% in assay [3]; -8% in assay [5]; 17% in assay [6]; 26% in assay [7].
Turning to `Oc1ccc(Cl)c2cccnc12`, the inhibition was 44% in assay [1]; 39% in assay [2]; 60% in assay [3]; 0% in assay [4]; 45% in assay [5]; 1% in assay [6]. In addition, the inhibition in assay [7] worked out at 73%.
With `CC(C)c1cccc(C(=O)O)c1O`, the inhibition in assay [1] is -3%; in assay [2], 13%; in assay [3] it was -2%; in assay [4], 91%; in assay [5] it was 5%; in assay [6], 9%. In addition, the inhibition is 3% in assay [7] and -3% in assay [8].
Consider `[O-][n+]1ccccc1S`, for which the inhibition in assay [1] was found to be 23%; in assay [2], 78%; in assay [3], 91%; in assay [4], 81%; in assay [5], 100%; in assay [6], 77%. Besides, the inhibition in assay [7] turned out to be 90%; in assay [8], 70%.
`Cc1c(O)c(=S)ccn1C`: the inhibition in assay [1] was 51%; in assay [2], 78%; in assay [3] it was 100%; in assay [4], 100%; in assay [5] it was 99%; in assay [6], 100%. Moreover, the inhibition in assay [7] and in assay [8] was 95% throughout.
Take `Oc1nccc(S)n1`: the inhibition in assay [1] was 22%; in assay [2] it was 90%; in assay [4], 44%; in assay [5], 95%; in assay [6] it was 90%; in assay [7] it was 83%. For the same compound, the inhibition in assay [8] was 46%.
Turning to `O=c1cc[nH]c(=S)[nH]1`, the inhibition in assay [1] turned out to be 33%; in assay [2] it was 52%; in assay [3], 47%; in assay [4] it was 36%; in assay [5], 47%; in assay [6] it was 44%. Also, the inhibition in assay [7] amounted to 37%.
Take `CS(=O)(=O)Nc1cccc2cccnc12`: the inhibition in assay [2] amounted to 57%; in assay [3], 84%; in assay [5], 64%; in assay [6], 59%; in assay [7], 75%; in assay [8], 13%.

Values taken from ChEMBL document CHEMBL1649420, “Identifying chelators for metalloprotein inhibitors using a fragment-based approach” (J Med Chem, 2011).
